Data from patent publication US6204277A, “Propionic acid derivatives and applications thereof” (Japan Tobacco Inc., priority 1996, dated 2001).

Columns and labels:
3T3-L1 cells = assay: Evaluation of Insulin Sensitivity Using 3T3-L1 Cells (triglyceride accumulation); assay type: cell-based; settings: Mus musculus, 96 h, insulin 10 ng/ml, 4 days, triglyceride increase by 10 μM pioglitazone taken as 100%, read-out: EC50 (dose necessary for a 50% increase of triglyceride)
Procedure: Evaluation of Insulin Sensitivity Using 3T3-L1 Cells 3T3-L1 cells (purchased from American Type Culture Collection) which were in the n=x+3 passage were purchased and subcultured until the passage number reached n=x+8. The cells were frozen in liquid nitrogen, thawed and suboultured till n=x+11. 0.05% Trypsin-0.53 mM ethylenediaminetetraacetic acid (EDTA) was added and the cells were harvested. The cells were suspended in Dulbecco's modified Eagle's medium (DMEM) [5% fetal bovine serum (FBS), supplemented with 5.6 mM glucose], plated on a 24 well plate at a concentration of 0.5×10^5 cells/well and cultured. Two days later, the medium was changed to DMEM [5% FBS, supplemented with 5.6 mM glucose] containing 1 μM dexamethasone and 0.5 mM isobutylmethylxanthine and the incubation was continued for 2 more days. The test compounds were dissolved in dimethyl sulfoxide and diluted 1000-fold with DMEM [2% FBS, supplemented with 5.6 mM glucose] containing insulin (10 ng/ml) to make the final concentration thereof to 0 nM-10 μM, and added to the cells, which cells were incubated for 4 days. After incubation, isopropanol was added by 200 μl per well and the cells were ruptured by a probe type ultrasonicator. The triglyceride amount was determined using a triglyceride determination kit. The activity of the compounds was determined by calculating relative triglyceride increase achieved by each compound when that achieved by 10 μM pioglitazone was taken as 100%, and expressed by the dose (EC50) necessary for a 50% increase of triglyceride. The test compounds were those of Examples 1-3, 5, 8, 15, 16, 18, 19, 22 and 28 and Reference Example 1. As a control compound, used was a known compound of the following formula. The above test concerns whether or not the insulin sensitivity of 3T3-L1 cells is promoted. […] When insulin acts on 3T3-L1 cells, it not only takes up glucose but permits accumulation of triglyceride in the cells. Thus, after allowing insulin to act, the cells are ruptured and triglyceride is quantitatively determined, whereby the degree of the action of insulin and the degree of sensitivity can be known.

diabetic mice (KK-Ay) = assay: Evaluation of Serum Glucose of Diabetic Mice; assay type: in vivo; settings: Mus musculus, 96 h; KK-Ay male mice, oral in diet, 4 days; read-out: Serum glucose ED50 (dose corresponding to a -50% change)
Procedure: Evaluation of Serum Glucose of Diabetic Mice
Genetically obese, hyperglycemic, hyperinsulinemic and hyperlipidemic diabetic mice (KK-Ay, male, Clea Japan, Inc., 8 weeks of age) were used for the pharmacological tests. Before the initiation of the drug administration, about 100 μl of blood was taken from orbital venosus under light ether anesthesia, and serum glucose was measured as described below. Based on the obtained value and body weight, the mice were grouped (6 per group) in such a manner that there existed no differences between the groups.
The test compounds were those of Examples 1 and 5 and Reference Example 1, as well as the above-mentioned control compound.
The test compounds were respectively dissolved in ethanol (three levels of concentrations per compound) and added to a powdered diet (CRF-1, ORIENTAL YEAST CO., LTD.). The diet was homogeneously mixed and ethanol was evaporated. The diet was given to the above-mentioned mice for 4 days, and the test compounds were orally administered (3 doses each). To a control group, CRF-1 powdered diet was given.
At day 4, blood samples (ca. 200 μl) were taken again in the same manner as above, and serum was separated (12,000 rpm, 5 min.) and used for the determination. Serum glucose was measured by hexokinase method (LYQUITECH glucose-HK-test; Boehlinger Marnheim Yamanouchi). Used for the determination was an automatic analyzer COBAS FARA II (Roche).
Changes in percentage of serum glucose of each group were calculated as follows from the values obtained at day 4 from the control group and the group administered with test compounds. [formula]
The changes in percentage of serum glucose was plotted on the axis of ordinates and the dose (mg/kg/day) of the test compound was plotted on the axis of abscissa (log), and the dose corresponding to a -50% change was read and taken as the ED50 of each test compound.

Row | Compound | EC50 (3T3-L1 cells) | ED50 (diabetic mice (KK-Ay))
1 | Cc1oc(-c2ccccc2)nc1CCOc1ccc(CC(C(N)=O)C(=O)O)cc1 (centres unmarked) [Example 3, 2-Carbamoyl-3-[4-[2-(5-methyl-2-phenyl-4-oxazolyl)ethoxy]phenyl]propionic acid] | 150 nM | –
2 | COC(=O)CCc1ccc(OCCc2nc(-c3ccccc3)oc2C)cc1 [Example 16, Methyl 3-[4-[2-(5-methyl-2-phenyl-4-oxazolyl)ethoxy]phenyl]propionate] | 53 nM | –
3 | CCc1ccc(CCOc2ccc(CC3SC(=O)NC3=O)cc2)nc1 (centres unmarked) [Control compound, reference compound] | 180 nM | 10.6 mg/kg
4 | COC(=O)C(Cc1ccc(OCCc2nc(-c3ccccc3)oc2C)cc1)C(=O)OC [Reference Example 1, Dimethyl 2-[4-[2-(5-methyl-2-phenyl-4-oxazolyl)ethoxy]benzyl]malonate] | 0.38 nM | 0.17 mg/kg
5 | COC(=O)C(Cc1ccc(OCCc2nc(-c3ccccc3)oc2C)cc1)C(=O)O (centres unmarked) [Example 1, 2-Methoxycarbonyl-3-[4-[2-(5-methyl-2-phenyl-4-oxazolyl)ethoxy]phenyl]propionic acid] | 0.45 nM | 0.12 mg/kg
6 | CSC(=O)NC(=O)CCc1ccc(OCCc2nc(-c3ccccc3)oc2C)cc1 [Example 22] | 90 nM | –
7 | COC(=O)NC(=O)C(Cc1ccc(OCCc2nc(-c3ccccc3)oc2C)cc1)C(=O)OC (centres unmarked) [Example 8, Methyl 2-methoxycarbonylcarbamoyl-3-[4-[2-(5-methyl-2-phenyl-4-oxazolyl)ethoxy]phenyl]propionate] | 7 nM | –
8 | COC(=O)C(Cc1ccc(OCCc2nc(-c3ccccc3)oc2C)cc1)C(N)=O (centres unmarked) [Example 2, Methyl 2-carbamoyl-3-[4-[2-(5-methyl-2-phenyl-4-oxazolyl)ethoxy]phenyl]propionate] | 90 nM | –
9 | Cc1oc(-c2cc3ccccc3s2)nc1CCOc1ccc(CCC(=O)NC(N)=O)cc1 [Example 15, N-[3-[4-[2-(2-(Benzothiophen-2-yl)-5-methyl-4-oxazolyl)ethoxy]phenyl]propionyl]urea] | 90 nM | –
10 | COC(=O)NC(=O)CCc1ccc(OCCc2nc(-c3ccccc3)oc2C)cc1 [Example 19, Methyl N-[3-[4-[2-(5-methyl-2-phenyl-4-oxazolyl)ethoxy]phenyl]propionyl]carbamide] | 90 nM | –
11 | Cc1oc(-c2ccccc2)nc1CCOc1ccc(CCC(N)=O)cc1 [Example 18, 3-[4-[2-(5-Methyl-2-phenyl-4-oxazolyl)ethoxy]phenyl]propionamide] | 65 nM | –
12 | Cc1oc(-c2ccccc2)nc1CCOc1ccc(CC(C(=O)O)C(=O)O)cc1 [Example 5, 2-[4-[2-(5-Methyl-2-phenyl-4-oxazolyl)ethoxy]benzyl]malonic acid] | 7.2 nM | 2.7 mg/kg
13 | Cc1oc(-c2ccccc2)nc1CCOc1ccc(CC(C)(C(N)=O)C(=O)O)cc1 (centres unmarked) [Example 28, 2-Carbamoyl-2-methyl-3-[4-[2-(5-methyl-2-phenyl-4-oxazolyl)ethoxy]phenyl]propionic acid] | 73 nM | –
